Where a name gives a salt, the structure may show the parent alone.
Test system: coronary vasospasm
Assay: Treatment of coronary vasospasm after off pump beating coronary artery bypass grafting (angiography, case reports)
Assay type: in vivo, patient
Protocol: To a patient who had been subjected to off pump beating coronary artery bypass grafting (in which a left internal thoracic artery was anastomosed to each of a left anterior descending coronary artery and a diagonal branch), during and after the operation, isosorbide dinitrate (2 to 5 mg/hour), diltiazem (1 to 2 mg/hour), nicorandil (4 to 6 mg/hour), and catecholamines (1 to 2 μg/kg per minute of dopamine and 1 to 2 μg/kg per minute of dobutamine) were continuously intravenously administered. However, after three hours of the operation, severe coronary vasospasm occurred. The coronary vasospasm occurred in a right coronary artery which was not related to the bypass operation. Isosorbide dinitrate (total of 10 mg) was administered into the coronary artery, but it had no effect on the vasospasm. Therefore, fasudil hydrochloride was dissolved in a physiological saline and then the mixture was administered into the right coronary artery for 15 minutes at a rate of 1.5 mg/minute. As a result, the coronary vasospasm was resolved (see FIG. 1). At the occurrence of the vasospasm and after the administration of isosorbide dinitrate, the right coronary artery became thin like a thread due to the vasospasm and peripheral part thereof was not illustrated. However, after the administration of fasudil hydrochloride, the peripheral part was illustrated. […] After that, fasudil hydrochloride was dissolved in the physiological saline and the mixture was continuously administered into the vein for 72 hours (tapered from 10 mg/hour).
To a patient who had been subjected to off pump beating coronary artery bypass grafting (in which a saphenous vein graft was anastomosed from an aorta to a left anterior descending coronary artery), during and after the operation, isosorbide dinitrate (1 to 5 mg/hour), diltiazem (1 to 2 mg/hour), and catecholamines (1 to 2 μg/kg per minute of dopamine, dobutamine, and norepinephrine, respectively) were continuously intravenously administered. However, after five hours of the operation, severe coronary vasospasm occurred. The coronary vasospasm occurred in a right coronary artery and a left circumflex coronary artery which were not related to the bypass operation. Isosorbide dinitrate (total of 10 mg) was administered into the right coronary artery, but it had no effect on the vasospasm. Therefore, fasudil hydrochloride was dissolved in a physiological saline and then the mixture was administered into the right coronary artery for 15 minutes at a rate of 1.5 mg/minute As a result, the coronary vasospasm was resolved (see FIG. 1). At the occurrence of the vasospasm and after the administration of isosorbide dinitrate, the distal part thereof from the portion where the vasospasm had occurred was not illustrated. However, after the administration of fasudil hydrochloride, the peripheral part was illustrated. […] After that, fasudil hydrochloride was dissolved in the physiological saline and the mixture was continuously administered into the vein for 72 hours (tapered from 10 mg/hour).
To a patient who had been subjected to off pump beating coronary artery bypass grafting (in which a right internal thoracic artery was anastomosed to a left anterior descending coronary artery and a left internal thoracic artery was anastomosed to a posterolateral branch of a left circumflex coronary artery), during the operation, isosorbide dinitrate (1 to 3 mg/hour), diltiazem (0.5 to 1 mg/hour), nicorandil (2 to 3 mg/hour), and catecholamines (1 to 5 μg/kg per minute of dopamine, 1 to 2 μg/kg per minute of dobutamine, and 1 to 2 μg/min of norepinephrine) were continuously intravenously administered. However, severe coronary vasospasm occurred immediately thereafter. The vasospasm occurred in the right coronary artery which was not related to the bypass operation and the bypass artery grafts (the right internal thoracic artery and the left internal thoracic artery) while the anastomosis region was left open. […]

O=S(=O)(c1cccc2cnccc12)N1CCCNCC1 [fasudil hydrochloride]
recurrence of coronary vasospasm (Example 1 patient, continuous intravenous administration for 72 hours (tapered from 10 mg/hour)): did not occur again | effect on the coronary vasospasm (Example 1 patient, fasudil hydrochloride in physiological saline into the right coronary artery for 15 minutes at 1.5 mg/minute): resolved | recurrence of coronary vasospasm (Example 2 patient, continuous intravenous administration for 72 hours (tapered from 10 mg/hour)): did not occur again | effect on the coronary vasospasm (Example 2 patient, fasudil hydrochloride in physiological saline into the right coronary artery for 15 minutes at 1.5 mg/minute): resolved | recurrence of coronary vasospasm (Example 3 patient, continuous intravenous administration for 48 hours (tapered from 30 mg/hour)): did not occur again | effect on the coronary vasospasm (Example 3 patient, fasudil hydrochloride in physiological saline into each of the blood vessels for 15 minutes at 1.5 mg/minute): resolved

From US20080242660A1, “Therapeutic Agent for Vasospasm Accompanying Bypass Operation” (ASAHI KASEI PHARMA CORPORATION, priority 2004, published 2008)
